# According to patent US20070231320A1, “Eggs having increased antibody titer and methods for making same” (priority 2006, published 2007):
# Assays:
# Assay type in all cases: in vivo, Hyline-98 leghorn hens
# [1] = tested on: anti-PLA2 antibody titer in egg yolk; assay: Egg yolk anti-PLA2 antibody titer by ELISA, third trial: indomethacin or aspirin in feed from day 14 after antigen; details: FIG. 3, inhibitor in feed from day 14 after PLA2 injection; for presence of anti-PLA2 antibodies in eggs: 21 days after exposure
# Method: (§1) Eggs were cracked and the yolks and albumin were separated. The antibodies were extracted by a 1:10 dilution of yolk in acidified PBS (pH 5.0) for twelve hours. Antibody titer was assayed by enzyme-linked immunosorbent assay (ELISA) at twenty-eight, thirty-five and forty-two days after exposure to the antigen. Optical density was measured at 450 nm using an HRP enzyme reaction to detect antibody. A standard on each plate was defined as a “positive reaction,” which is defined as twice the optical density of an egg yolk diluted 1:2000 from a hen not immunized against the antigen.
# In a third set of experiments, the hens were divided at 245 days of age into three treatment groups. On day one, the three groups were injected at the four sites with 1 ml total of 3 mg PLA2/ml of CFA and PBS in a 50/50 mixture. A control group (n=8) was fed standard breeder's mash for the entire trial. Starting on day fourteen after exposure to the antigen, a first test group (n=8) was fed standard breeder's mash supplemented with 50 mg of indomethacin/kg diet and a second test group (n=8) was fed standard breeder's mash supplemented with 1 g aspirin/kg diet.
# Antibody titer was determined as in the first two trials at twenty-one, twenty-eight and sixty-three days after the injection of PLA2.
# [2] = tested on: anti-PLA2 antibody titer in egg yolk; assay: Egg yolk anti-PLA2 antibody titer by ELISA, second trial: indomethacin or aspirin in feed for 24 h before antigen; details: for anti-PLA2 antibody titer in eggs vs control hens / presence of anti-PLA2 antibodies in eggs: FIG. 2, 50 mg indomethacin/kg diet or 1 g aspirin/kg diet for 24 h before PLA2 injection; for anti-PLA2 antibody titer in eggs vs control hens: 35 and 42 days after exposure; for presence of anti-PLA2 antibodies in eggs: 21 days after exposure
# Method: as §1
# In a second set of trials, the hens were divided at 300 days of age into three treatment groups. For twenty-four hours after the groups were established, a control group (n=6) was fed standard breeder's mash, a first test group (n=6) was fed standard breeder's mash supplemented with 50 mg of indomethacin/kg diet, and a second test group (n=6) was fed standard breeder's mash supplemented with 1 g aspirin/kg diet. After twenty-four hours, the three groups were injected at the four sites with 1 ml total of 3 mg PLA2/ml of CFA and PBS in a 50/50 mixture. Booster injections were given as described above.
# Antibody titer was determined as in the first trial at twenty-one, twenty-eight, thirty-five and forty-two days after exposure to the antigen.
# [3] = tested on: anti-PLA2 antibody titer in egg yolk; assay: Egg yolk anti-PLA2 antibody titer by ELISA, first trial: COX inhibitor in feed for 24 h before antigen; details: 50 mg indomethacin/kg diet for 24 h before PLA2 injection
# Method: Hyline-98 leghorn hens were randomly assigned to treatment groups and given free access to standard breeder's mash and water. In a first set of trials, the hens were divided at 245 days of age into two treatment groups. For twenty four hours after the groups were established, a control group (n=6) was fed standard breeder's mash and a test group (n=6) was fed standard breeder's mash supplemented with 50 mg of indomethacin/ kg diet. After twenty four hours, both groups were injected intramuscularly (i.m.) at four sites (each breast muscle and each leg muscle) with 1 ml total of 3 mg PLA2/ml of complete Freund's adjuvant (CFA; Sigma, St. Louis, Mo.) and phosphate buffered saline (PBS) in a 50/50 mixture. Hens were given an i.m. booster injection over the four sites seven days after initial injection with 1 ml total of a 3 mg PLA2/ml of incomplete Freund's adjuvant (IFA; Sigma) and PBS in a 50/50 mixture.
# as §1
Structure (SMILES),anti-PLA2 antibody titer in eggs compared to control ([1]; 21 and 28 days after exposure),presence of anti-PLA2 antibodies in eggs [1],anti-PLA2 antibody titer in eggs compared to control ([1]; 63 days after exposure),anti-PLA2 antibody titer in eggs vs control hens [2],presence of anti-PLA2 antibodies in eggs [2],anti-PLA2 antibody titer of eggs relative to eggs from control hens ([3]; 42 days after exposure),"anti-PLA2 antibody titer in eggs vs control hens ([3]; FIG. 1, 28, 35 and 42 days after exposure)","presence of antigen-specific anti-PLA2 antibodies in eggs ([3]; FIG. 1, by 28 days after exposure)","anti-PLA2 antibody titer of eggs relative to eggs from control hens ([2]; 1 g aspirin/kg diet for 24 h before PLA2 injection, 42 days after exposure)","effectiveness at increasing antibody titer, aspirin compared with indomethacin ([2]; 1 g aspirin/kg diet vs 50 mg indomethacin/kg diet for 24 h before PLA2 injection)"
COc1ccc2c(c1)c(CC(=O)O)c(C)n2C(=O)c1ccc(Cl)cc1 [indomethacin],not significantly different,contained anti-PLA2 antibodies,control group had a higher antibody titer,significantly increased,had anti-PLA2 antibodies,nearly triple,significantly increased,contained antigen-specific anti-PLA2 antibodies,–,–
CC(=O)Oc1ccccc1C(=O)O [aspirin],not significantly different,contained anti-PLA2 antibodies,control group had a higher antibody titer,significantly increased,had anti-PLA2 antibodies,–,–,–,nearly three times,more effective
